Laboratory results reported in US10221177B2 (HYDRA BIOSCIENCES, INC., priority 2014, dated 2019).

Molecular target: human TRPA1 (Homo sapiens (Human), UniProt O75762)
Experiment: In vitro inhibition of human TRPA1, whole cell patch configuration
Format: cell-based
Conditions: current activation 10 μM AITC, tested concentrations 320 pM to 3.2 μM, read-out: hTRPA1 IC50
In short: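 Compound antagonism measured from voltage ramps (±100 or ±80 mV, 400 ms, every 4 s from −40 mV), analysed at −80 and 80 mV, or at constant −60 mV. HEPES-buffered NaCl bath, pH 7.4, EGTA or 2 mM Ca2+; temperature set by perfusion, within ±2° C; no junction-potential correction.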

Sequence of human TRPA1 (O75762 whole entry): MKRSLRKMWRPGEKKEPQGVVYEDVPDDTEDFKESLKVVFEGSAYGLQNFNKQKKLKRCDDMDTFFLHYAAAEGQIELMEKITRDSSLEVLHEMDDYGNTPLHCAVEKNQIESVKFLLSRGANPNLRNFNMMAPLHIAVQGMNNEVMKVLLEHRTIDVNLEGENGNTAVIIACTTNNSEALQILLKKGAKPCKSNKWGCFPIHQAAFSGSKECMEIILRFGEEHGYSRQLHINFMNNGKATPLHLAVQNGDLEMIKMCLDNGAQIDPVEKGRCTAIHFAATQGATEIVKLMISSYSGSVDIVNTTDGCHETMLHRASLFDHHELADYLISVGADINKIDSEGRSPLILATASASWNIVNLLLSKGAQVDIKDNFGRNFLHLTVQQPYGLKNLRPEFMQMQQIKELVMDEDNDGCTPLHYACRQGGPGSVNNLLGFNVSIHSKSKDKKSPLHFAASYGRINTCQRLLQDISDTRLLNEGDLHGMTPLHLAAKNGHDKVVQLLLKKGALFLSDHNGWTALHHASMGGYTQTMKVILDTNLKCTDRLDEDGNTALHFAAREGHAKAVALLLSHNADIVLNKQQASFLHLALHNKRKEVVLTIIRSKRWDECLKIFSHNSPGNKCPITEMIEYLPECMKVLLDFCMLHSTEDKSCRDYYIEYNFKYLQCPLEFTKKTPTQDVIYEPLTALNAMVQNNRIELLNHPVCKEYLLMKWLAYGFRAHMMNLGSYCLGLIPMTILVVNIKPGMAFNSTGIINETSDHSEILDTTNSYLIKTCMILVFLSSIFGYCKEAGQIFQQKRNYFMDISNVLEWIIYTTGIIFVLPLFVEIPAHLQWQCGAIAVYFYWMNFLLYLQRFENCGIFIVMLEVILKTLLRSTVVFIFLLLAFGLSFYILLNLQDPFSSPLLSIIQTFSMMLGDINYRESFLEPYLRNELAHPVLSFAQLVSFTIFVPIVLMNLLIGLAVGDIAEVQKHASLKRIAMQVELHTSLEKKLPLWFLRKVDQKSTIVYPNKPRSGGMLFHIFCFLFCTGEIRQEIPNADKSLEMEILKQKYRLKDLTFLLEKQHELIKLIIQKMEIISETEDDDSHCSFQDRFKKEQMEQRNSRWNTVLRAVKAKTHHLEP

| Compound | IC50 |
| --- | --- |
| COCC(=O)Cn1c(=O)c2c(ncn2CC(=O)Nc2csc(-c3cnc(C(F)(F)F)c(C)c3)n2)n(C)c1=O [Compound 255, 2-(1-(3-methoxy-2-oxopropyl)-3-methyl-2,6-dioxo-2,3-dihydro-1H-purin-7(6H)-yl)-N-(2-(5-methyl-6-(trifluoromethyl)pyridin-3-yl)thiazol-4-yl)acetamide] | 13 nM |
| CC#CCn1c(=O)c2c(ncn2[C@@H](C)C(=O)Nc2cccc(-c3cnc(N4CC5CC5C4)nc3)n2)n(C)c1=O (stereo partly drawn) [Compound 168, (2S)—N-(6-(2-(3-azabicyclo[3.1.0]hexan-3-yl)pyrimidin-5-yl)pyridin-2-yl)-2-(1-(but-2-yn-1-yl)-3-methyl-2,6-dioxo-2,3-dihydro-1H-purin-7(6H)-yl)propanamide] | 12 nM |
| CC(=O)Cn1c(=O)c2c(ncn2CC(=O)Nc2csc(-c3cnc(C(F)(F)F)c(C)c3)n2)n(C)c1=O [Compound 216, 2-(3-methyl-2,6-dioxo-1-(2-oxopropyl)-2,3-dihydro-1H-purin-7(6H)-yl)-N-(2-(5-methyl-6-(trifluoromethyl)pyridin-3-yl)thiazol-4-yl)acetamide] | 16 nM |
| Cc1nc(Cn2c(=O)c3c(ncn3CC(=O)Nc3csc(-c4cnc(C)c(C(F)(F)F)c4)n3)n(C)c2=O)no1 [Compound 248, 2-(3-methyl-1-((5-methyl-1,2,4-oxadiazol-3-yl)methyl)-2,6-dioxo-2,3-dihydro-1H-purin-7(6H)-yl)-N-(2-(6-methyl-5-(trifluoromethyl)pyridin-3-yl)thiazol-4-yl)acetamide] | 4 nM |
| Cc1cc(Cn2c(=O)c3c(ncn3[C@@H](C)C(=O)Nc3csc(-c4cnc(C(F)(F)F)c(C)c4)n3)n(C)c2=O)no1 [Compound 94, (S)-2-(3-methyl-1-((5-methylisoxazol-3-yl)methyl)-2,6-dioxo-2,3-dihydro-1H-purin-7(6H)-yl)-N-(2-(5-methyl-6-(trifluoromethyl)pyridin-3-yl)thiazol-4-yl)propanamide] | 3 nM |
| Cc1cc(Cn2c(=O)c3c(ncn3[C@@H](C)C(=O)Nc3cccc(-c4cncc(C(F)(F)F)c4)n3)n(C)c2=O)no1 [Compound 156, (S)-2-(3-methyl-1-((5-methylisoxazol-3-yl)methyl)-2,6-dioxo-2,3-dihydro-1H-purin-7(6H)-yl)-N-(5′-(trifluoromethyl)-2,3′-bipyridin-6-yl)propanamide] | 3 nM |
| Cc1cc(Cn2c(=O)c3c(ncn3[C@@H](C)C(=O)Nc3ccnc(-c4cnc(C(F)(F)F)c(C)c4)n3)n(C)c2=O)no1 [Compound 85, (S)-2-(3-methyl-1-((5-methylisoxazol-3-yl)methyl)-2,6-dioxo-2,3-dihydro-1H-purin-7(6H)-yl)-N-(2-(5-methyl-6-(trifluoromethyl)pyridin-3-yl)pyrimidin-4-yl)propanamide] | 3 nM |
| COCC(=O)Cn1c(=O)c2c(ncn2[C@@H](C)C(=O)Nc2csc(-c3ccc(N4CC5C(C4)C5(F)F)nc3)n2)n(C)c1=O (stereo partly drawn) [Compound 269, (2S)—N-(2-(6-(6,6-difluoro-3-azabicyclo[3.1.0]hexan-3-yl)pyridin-3-yl)thiazol-4-yl)-2-(1-(3-methoxy-2-oxopropyl)-3-methyl-2,6-dioxo-2,3-dihydro-1H-purin-7(6H)-yl)propanamide] | 4 nM |
| COCC(=O)Cn1c(=O)c2c(ncn2[C@@H](C)C(=O)Nc2cccc(-c3cnc(N4CC5C(C4)C5(F)F)nc3)n2)n(C)c1=O (stereo partly drawn) [Compound 146, (2S)—N-(6-(2-(6,6-difluoro-3-azabicyclo[3.1.0]hexan-3-yl)pyrimidin-5-yl)pyridin-2-yl)-2-(1-(3-methoxy-2-oxopropyl)-3-methyl-2,6-dioxo-2,3-dihydro-1H-purin-7(6H)-yl)propanamide] | 3 nM |
| Cn1c(=O)n(Cc2ccccn2)c(=O)c2c1ncn2CC(=O)Nc1cccc(-c2cnc(N3CCC[C@H]3C(F)(F)F)nc2)n1 [Compound 189, (S)-2-(3-methyl-2,6-dioxo-1-(pyridin-2-ylmethyl)-2,3-dihydro-1H-purin-7(6H)-yl)-N-(6-(2-(2-(trifluoromethyl)pyrrolidin-1-yl)pyrimidin-5-yl)pyridin-2-yl)acetamide] | 2 nM |
| CC(=O)Cn1c(=O)c2c(ncn2[C@@H](C)C(=O)Nc2csc(-c3cnc(C)c(F)c3)n2)n(C)c1=O [Compound 92, (S)—N-(2-(5-fluoro-6-methylpyridin-3-yl)thiazol-4-yl)-2-(3-methyl-2,6-dioxo-1-(2-oxopropyl)-2,3-dihydro-1H-purin-7(6H)-yl)propanamide] | 33 nM |
| Cc1cc(Cn2c(=O)c3c(ncn3[C@@H](C)C(=O)Nc3ccnc(-c4cnc(N5CCC[C@H]5C(F)(F)F)nc4)n3)n(C)c2=O)no1 [Compound 114, (S)-2-(3-methyl-1-((5-methylisoxazol-3-yl)methyl)-2,6-dioxo-2,3-dihydro-1H-purin-7(6H)-yl)-N-(2′-((S)-2-(trifluoromethyl)pyrrolidin-1-yl)-[2,5′-bipyrimidin]-4-yl)propanamide] | 2 nM |
| Cc1cc(-c2cccc(NC(=O)Cn3cnc4c3c(=O)n(Cc3ccon3)c(=O)n4C)n2)cnc1C(F)(F)F [Compound 224, 2-(1-(isoxazol-3-ylmethyl)-3-methyl-2,6-dioxo-2,3-dihydro-1H-purin-7(6H)-yl)-N-(5′-methyl-6′-(trifluoromethyl)-[2,3′-bipyridin]-6-yl)acetamide] | 19 nM |
| COCC(=O)Cn1c(=O)c2c(ncn2[C@@H](C)C(=O)Nc2cccc(-c3cnc(N4CC5CC5C4)cn3)n2)n(C)c1=O (stereo partly drawn) [Compound 266, (2S)—N-(6-(5-(3-azabicyclo[3.1.0]hexan-3-yl)pyrazin-2-yl)pyridin-2-yl)-2-(1-(3-methoxy-2-oxopropyl)-3-methyl-2,6-dioxo-2,3-dihydro-1H-purin-7(6H)-yl)propanamide] | 7 nM |
| CC(=O)Cn1c(=O)c2c(nc(C)n2CC(=O)Nc2cccc(-c3ccc(Cl)cc3)n2)n(C)c1=O [Compound 192, N-(6-(4-chlorophenyl)pyridin-2-yl)-2-(3,8-dimethyl-2,6-dioxo-1-(2-oxopropyl)-1,2,3,6-tetrahydropurin-7-yl)acetamide] | 33 nM |
| CC(=O)Cn1c(=O)c2c(ncn2[C@@H](C)C(=O)Nc2csc(-c3cnc(C(F)(F)F)nc3)n2)n(C)c1=O [Compound 31, (S)-2-(3-methyl-2,6-dioxo-1-(2-oxopropyl)-2,3-dihydro-1H-purin-7(6H)-yl)-N-(2-(2-(trifluoromethyl)pyrimidin-5-yl)thiazol-4-yl)propanamide] | 16 nM |
| CC(C(=O)Nc1ccnc(-c2cnc(C(F)(F)F)nc2)n1)n1cnc2c1c(=O)n(Cc1ccccn1)c(=O)n2C (stereo not shown) [Compound 141, 2-(3-methyl-2,6-dioxo-1-(pyridin-2-ylmethyl)-2,3-dihydro-1H-purin-7(6H)-yl)-N-(2′(trifluoromethyl)-2,5′-bipyrimidin-4-yl)propanamide] | 80 nM |
| Cc1cc(Cn2c(=O)c3c(ncn3[C@@H](C)C(=O)Nc3cccc(-c4cnc(Cl)c(C(F)(F)F)c4)n3)n(C)c2=O)no1 [Compound 123, (S)—N-(6′-chloro-5′-(trifluoromethyl)-[2,3′-bipyridin]-6-yl)-2-(3-methyl-1-((5-methylisoxazol-3-yl)methyl)-2,6-dioxo-2,3-dihydro-1H-purin-7(6H)-yl)propanamide] | 2 nM |
| CC(=O)Cn1c(=O)c2c(ncn2[C@@H](C)C(=O)Nc2cncc(-c3cnc(C(F)(F)F)nc3)n2)n(C)c1=O [Compound 6, (S)-2-(3-methyl-2,6-dioxo-1-(2-oxopropyl)-2,3-dihydro-1H-purin-7(6H)-yl)-N-(6-(2-(trifluoromethyl)pyrimidin-5-yl)pyrazin-2-yl)propanamide] | 39 nM |
| COCC(=O)Cn1c(=O)c2c(ncn2[C@@H](C)C(=O)Nc2cccc(-c3ccc(N4CC5C(C4)C5(F)F)nc3)n2)n(C)c1=O (stereo partly drawn) [Compound 258, (2S)—N-(6′-(6,6-difluoro-3-azabicyclo[3.1.0]hexan-3-yl)-[2,3′-bipyridin]-6-yl)-2-(1-(3-methoxy-2-oxopropyl)-3-methyl-2,6-dioxo-2,3-dihydro-1H-purin-7(6H)-yl)propanamide] | 7 nM |
| Cc1noc(Cn2c(=O)c3c(ncn3CC(=O)Nc3csc(-c4cnc(C)c(C(F)(F)F)c4)n3)n(C)c2=O)n1 [Compound 252, 2-(3-methyl-1-((3-methyl-1,2,4-oxadiazol-5-yl)methyl)-2,6-dioxo-2,3-dihydro-1H-purin-7(6H)-yl)-N-(2-(6-methyl-5-(trifluoromethyl)pyridin-3-yl)thiazol-4-yl)acetamide] | 1 nM |
| CC(=O)Cn1c(=O)c2c(ncn2[C@@H](C)C(=O)Nc2csc(-c3cnc(N4CCC[C@H]4C(F)(F)F)nc3)n2)n(C)c1=O [Compound 16, (S)-2-(3-methyl-2,6-dioxo-1-(2-oxopropyl)-2,3-dihydro-1H-purin-7(6H)-yl)-N-(2-(2-((S)-2-(trifluoromethyl)pyrrolidin-1-yl)pyrimidin-5-yl)thiazol-4-yl)propanamide] | 2 nM |
| Cc1cc(Cn2c(=O)c3c(ncn3CC(=O)Nc3cccc(-c4ccc(C(F)(F)F)nc4)n3)n(C)c2=O)no1 [Compound 215, 2-(3-methyl-1-((5-methylisoxazol-3-yl)methyl)-2,6-dioxo-2,3-dihydro-1H-purin-7(6H)-yl)-N-(6′-(trifluoromethyl)-2,3′-bipyridin-6-yl)acetamide] | 25 nM |
| C[C@@H](C(=O)Nc1cccc(-c2cnc(N3CC4CC4C3)nc2)n1)n1cnc2c1c(=O)n(CC#N)c(=O)n2C (stereo partly drawn) [Compound 11, (2S)—N-(6-(2-(3-azabicyclo[3.1.0]hexan-3-yl)pyrimidin-5-yl)pyridin-2-yl)-2-(1-(cyanomethyl)-3-methyl-2,6-dioxo-2,3-dihydro-1H-purin-7(6H)-yl)propanamide] | 5 nM |
| CCC(=O)Cn1c(=O)c2c(ncn2[C@@H](C)C(=O)Nc2cncc(-c3cnc(N4CC5C(C4)C5(F)F)cn3)n2)n(C)c1=O (stereo partly drawn) [Compound 159, (2S)—N-(5′-(6,6-difluoro-3-azabicyclo[3.1.0]hexan-3-yl)-[2,2′-bipyrazin]-6-yl)-2-(3-methyl-2,6-dioxo-1-(2-oxobutyl)-2,3-dihydro-1H-purin-7(6H)-yl)propanamide] | 6 nM |
